Laboratory results as given in patent publication US8785692B2, “Substituted phenylamidines and the use thereof as fungicides” (priority 2007, dated 2014).
Like-named read-outs stand apart in the source and are kept apart here.

Tests used:
[1] = system: Sphaerotheca fuliginea; assay: Sphaerotheca test (cucumber) / protective; format: in vivo; conditions: Podosphaera fuliginea, 168 h, read-out: efficacy
Method: Sphaerotheca Test (Cucumber)/Protective
Solvent: 49 parts by weight of N,N-dimethylformamide
Emulsifier: 1 part by weight of alkylaryl polyglycol ether
To produce a suitable preparation of active compound, 1 part by weight of active compound is mixed with the stated amounts of solvent and emulsifier, and the concentrate is diluted with water to the desired concentration.
To test for protective activity, young cucumber plants are sprayed with the active compound preparation at the stated application rate. 1 day after the treatment, the plants are inoculated with a spore suspension of Sphaerotheca fuliginea. The plants are then placed in a greenhouse at 70% relative atmospheric humidity and a temperature of 23° C.
Evaluation is carried out 7 days after the inoculation. 0% means an efficacy which corresponds to that of the control, whereas an efficacy of 100% means that no infection is observed.

[2] = logP (neutral / acidic, pH 2.3)
[3] = cucumber, protective, 500 ppm active compound, evaluation 7 days after inoculation

Row | logP [2] | logP ([2]; pH 2.3) | SMILES | pest or weed control at 500 ppm [1] [%] | pest or weed control at 500 ppm [1, 3] [%]
1 | 3.95 | 1.67 | CCN(C)C=Nc1cc(C)c(/C(C)=N/OCc2ccc(Cl)nc2)cc1C [Compound 32, N′-(4-{(1E)-N-[(6-chloropyridin-3-yl)methoxy]ethanimidoyl}-2,5-dimethylphenyl)-N-ethyl-N-methylimidoformamide] | – | ≥ 70
2 | 5.55 | 2.56 | CCN(C)C=Nc1cc(C)c(/C(C)=N/OCCc2ccc(Cl)cc2)cc1C [Compound 25, N′-(4-{(1E)-N-[2-(4-chloro-phenyl)ethoxy]ethanimidoyl}-2,5-dimethylphenyl)-N-ethyl-N-methylimidoformamide] | – | ≥ 70
3 | 6.26 | 3.05 | CCN(C)C=Nc1cc(C)c(/C(C)=N/OCc2ccc(C(C)(C)C)cc2)cc1C [Compound 12, N′-(4-{(1E)-N-[(4-tert-butylbenzyl)oxy]ethanimidoyl}-2,5-dimethylphenyl)-N-ethyl-N-methylimidoformamide] | – | ≥ 70
4 | 3.63 | 1.68 | CCN(C)C=Nc1cc(C)c(/C(C)=N/OCc2c(C)noc2C)cc1C [Compound 36, N′-(4-{(1E)-N-[(3,5-dimethylisoxazol-4-yl)methoxy]ethanimidoyl}-2,5-dimethylphenyl)-N-ethyl-N-methylimidoformamide] | – | ≥ 70

Row | SMILES | logP [2] | logP ([2]; pH 2.3) | pest or weed control at 500 ppm [1] [%] | pest or weed control at 500 ppm [1, 3] [%]
5 | CC#CCO/N=C(\C)c1cc(C)c(N=CN(C)CC)cc1C [Compound 16, N′-{4-[(1E)-N-(but-2-yn-1-yloxy)ethanimidoyl]-2,5-dimethylphenyl}-N-ethyl-N-methylimidoformamide] | 3.91 | 1.72 | ≥ 70 | –
6 | CCN(C)C=Nc1cc(C)c(/C(C)=N/OCc2ccc(Cl)c(Cl)c2)cc1C [Compound 30, N′-(4-{(1E)-N-[(3,4-dichlorobenzyl)oxy]-ethanimidoyl}-2,5-dimethylphenyl)-N-ethyl-N-methylimidoformamide] | 5.79 | 2.71 | ≥ 70 | –
